Data taken from BindingDB's records for doi:10.1016/j.bmcl.2011.12.068 (Janssen Pharmaceutica, 2012).
pIC50: −log10 of the molar value.

Experiments:
[1] = target: Transient receptor potential cation channel subfamily A member 1 (Rattus norvegicus, UniProt Q6RI86); test: Antagonist activity at rat TRPA1 expressed in HEK293 cells assessed as inhibition of BITC-induced increase in intracellular calcium concentration by Fluo4-AM based fluorometric assay
[2] = target: Transient receptor potential cation channel subfamily A member 1 (Homo sapiens, UniProt O75762); test: Antagonist activity at human TRPA1 expressed in HEK293 cells assessed as inhibition of 5H-dibenzo[b,e]azepine-10-carboxylic acid methyl ester-induced increase in intracellular calcium by Fluo4-AM based fluorometric assay
Chain of Transient receptor potential cation channel subfamily A member 1 (Homo sapiens, UniProt O75762) (O75762 whole entry): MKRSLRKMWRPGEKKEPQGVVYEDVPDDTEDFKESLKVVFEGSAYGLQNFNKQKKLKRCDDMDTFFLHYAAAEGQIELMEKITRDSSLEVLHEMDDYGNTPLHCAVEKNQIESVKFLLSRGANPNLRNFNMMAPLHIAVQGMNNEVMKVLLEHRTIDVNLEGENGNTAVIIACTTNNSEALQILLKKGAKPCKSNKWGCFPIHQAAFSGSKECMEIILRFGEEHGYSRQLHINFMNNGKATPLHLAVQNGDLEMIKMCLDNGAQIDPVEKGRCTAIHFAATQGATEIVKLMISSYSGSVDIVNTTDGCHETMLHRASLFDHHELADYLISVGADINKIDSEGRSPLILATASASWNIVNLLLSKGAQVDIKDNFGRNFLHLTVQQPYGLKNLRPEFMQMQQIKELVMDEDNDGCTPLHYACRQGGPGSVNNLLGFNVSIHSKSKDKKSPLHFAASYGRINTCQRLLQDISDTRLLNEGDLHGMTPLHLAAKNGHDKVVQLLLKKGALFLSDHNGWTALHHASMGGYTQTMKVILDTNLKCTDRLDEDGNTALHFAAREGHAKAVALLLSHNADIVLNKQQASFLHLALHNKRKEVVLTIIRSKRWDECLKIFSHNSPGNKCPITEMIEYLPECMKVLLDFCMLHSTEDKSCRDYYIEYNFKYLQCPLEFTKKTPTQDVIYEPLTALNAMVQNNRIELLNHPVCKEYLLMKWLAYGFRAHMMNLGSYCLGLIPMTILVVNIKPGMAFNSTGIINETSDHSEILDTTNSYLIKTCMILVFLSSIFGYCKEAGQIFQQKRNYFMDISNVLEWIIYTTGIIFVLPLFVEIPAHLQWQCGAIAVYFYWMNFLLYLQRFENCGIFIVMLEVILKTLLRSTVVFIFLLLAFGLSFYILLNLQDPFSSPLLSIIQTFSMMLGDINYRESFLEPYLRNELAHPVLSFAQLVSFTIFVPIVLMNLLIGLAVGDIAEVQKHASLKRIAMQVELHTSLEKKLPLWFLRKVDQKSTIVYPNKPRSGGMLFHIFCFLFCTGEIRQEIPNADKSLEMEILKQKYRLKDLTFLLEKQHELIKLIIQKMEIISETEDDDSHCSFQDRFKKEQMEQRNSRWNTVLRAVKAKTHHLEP

Chain of Transient receptor potential cation channel subfamily A member 1 (Rattus norvegicus, UniProt Q6RI86) (Q6RI86 whole entry E27K): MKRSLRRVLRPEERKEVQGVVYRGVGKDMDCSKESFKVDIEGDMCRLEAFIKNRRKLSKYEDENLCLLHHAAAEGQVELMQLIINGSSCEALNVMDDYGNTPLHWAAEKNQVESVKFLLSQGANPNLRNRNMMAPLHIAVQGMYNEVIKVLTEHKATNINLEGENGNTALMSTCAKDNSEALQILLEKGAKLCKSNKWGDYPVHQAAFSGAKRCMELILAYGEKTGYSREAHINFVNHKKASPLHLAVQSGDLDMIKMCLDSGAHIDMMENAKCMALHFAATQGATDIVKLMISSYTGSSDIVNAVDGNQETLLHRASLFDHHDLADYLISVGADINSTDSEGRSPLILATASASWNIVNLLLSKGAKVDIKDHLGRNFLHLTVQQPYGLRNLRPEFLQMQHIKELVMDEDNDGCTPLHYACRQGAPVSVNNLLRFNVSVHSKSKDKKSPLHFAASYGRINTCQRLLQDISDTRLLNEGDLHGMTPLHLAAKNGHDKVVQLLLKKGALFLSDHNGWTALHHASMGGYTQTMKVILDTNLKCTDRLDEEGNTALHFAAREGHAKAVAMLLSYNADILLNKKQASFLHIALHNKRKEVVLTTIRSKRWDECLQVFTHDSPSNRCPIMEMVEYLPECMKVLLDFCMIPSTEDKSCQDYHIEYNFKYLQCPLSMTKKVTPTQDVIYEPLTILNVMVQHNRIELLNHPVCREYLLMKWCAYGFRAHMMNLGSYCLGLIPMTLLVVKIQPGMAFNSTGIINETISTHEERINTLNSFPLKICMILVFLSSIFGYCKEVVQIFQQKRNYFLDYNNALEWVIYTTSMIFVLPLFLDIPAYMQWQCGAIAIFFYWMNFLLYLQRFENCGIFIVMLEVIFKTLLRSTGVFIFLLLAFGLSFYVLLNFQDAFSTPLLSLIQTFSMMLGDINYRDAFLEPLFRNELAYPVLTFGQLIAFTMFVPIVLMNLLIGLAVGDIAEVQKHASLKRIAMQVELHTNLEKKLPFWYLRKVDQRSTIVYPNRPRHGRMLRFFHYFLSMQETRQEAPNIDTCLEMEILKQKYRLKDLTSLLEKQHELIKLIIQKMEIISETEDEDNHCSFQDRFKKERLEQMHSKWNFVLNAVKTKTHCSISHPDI

SMILES	pIC50 [1]	pIC50 [2]
O=C1N=C2c3ccccc3C(=O)C2C(c2ccccc2)N1 (stereo not given)	< 5.00	< 5.00
O=C(O)c1cccc(C2NC(=S)N=C3c4ccccc4C(=O)C32)c1 (stereo not given)	< 5.00	< 5.00
COc1ccc(OC)c(C2NC(=S)N=C3c4ccccc4C(=O)C32)c1 (stereo not given)	< 5.00	< 5.00
CN(C)CCCOc1cccc(C2NC(=S)N=C3c4ccccc4C(=O)C32)c1 (stereo not given)	< 5.00	< 5.00
S=C1N=C(c2ccccc2)CC(c2ccccc2)N1 (stereo not given)		< 5.00
S=C1N=C2c3ccccc3CCC2C(c2ccccc2)N1 (stereo not given)		< 5.00
S=C1N=C2C(=Cc3ccccc3)CCCC2C(c2ccccc2)N1 (stereo not given)		< 5.00
S=C1N=C2CCCC2C(c2ccccc2)N1 (stereo not given)		< 5.00
S=C1N=C2CCCCC2C(c2ccccc2)N1 (stereo not given)		< 5.00
O=C1CCCC2=NC(=S)NC(c3ccccc3)C12 (stereo not given)		< 5.00
CC1=NC(=S)NC(c2ccccc2)C1C(=O)c1ccccc1 (stereo not given)		< 5.00
